This note sets out measurements from patent US20250163057A1, “DCN-1 MODULATING COMPOUNDS AND METHODS OF USE THEREOF” (Cellarity, Inc., priority 2023, published 2025).

Like-named read-outs stand apart in the source and are kept apart here.

For assay [1], the system named is Cullin-3 (CUL3) neddylation. Kind of assay: AlphaLISA assay for Cullin-3 (CUL3) neddylation in TF 1 cells. It counts as cell-based. Particulars: 3 hours treatment. The procedure, abridged: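 Neddylated CUL3 was quantified by AlphaLISA in lysates of TF 1 cells exposed for 3 h to test compound in IMDM without supplements. Percent inhibition set between vehicle and 1 μM DI-1548 positive control; IC50 derived by Hill-equation fitting of dose-response curves.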

The target in assay [2] is DCN1 protein (Homo sapiens (Human), UniProt Q96GG9). Put plainly: Intact Protein MS Analysis with the RapidFire-TOF System (covalent adduct formation). It counts as binding. Particulars: MS Emax; 400 nM DCN1, 3 hours at room temperature. The method, boiled down: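 Tag-cleaved human DCN1 (400 nM) expressed in E. coli, in 25 mM Tris-HCl, 200 mM NaCl, 1 mM DTT, was incubated with 11 compound concentrations for 3 h at room temperature and quenched with 0.2% formic acid. Intact-protein Q-TOF MS with deconvolution detected the compound adduct mass.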

In assay [3] the test system is fetal hemoglobin gene HBG1. Put plainly: HBG1 Nanostring Assay in CD34+ HSPC erythroid differentiation culture. The following applies: for EC50: HBG1 induction, Day10 of erythroid differentiation; for Nanostring Ymax obs (%): relative to a control compound (C1). It counts as cell-based, human. The method, boiled down: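 HBG1 counts came from direct nCounter hybridization (67° C, 22 h) of day-10 lysates, normalized to ERCC positive controls and a housekeeping gene, giving EC50 and Ymax versus a reference compound. Compounds in 0.1% DMSO were present from day −2 while cells underwent EPO/SCF/IL-3 erythroid differentiation, with IL-3 dropped at day 7, at 37° C.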

For assay [4], the target named is DCN1 (DCUND1) protein PONY domain (Homo sapiens (Human), UniProt Q96GG9). Kind of assay: TR-FRET assay, DCN1 binding with FAM-labeled probe. The procedure, abridged: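 TR-FRET ratio (Tb-DCN1 to FAM-probe) read at 1, 5 and 24 hrs after compound addition. Protein: recombinant PONY domain from E. coli, biotinylated and coupled to streptavidin terbium. Either 5 nM DCN1 with 20 nM FAM-probe, or 0.31 nM DCN1 with 100 nM FAM-labelled plus 800 nM unlabelled probe.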

Where [5] appears, read: 24 hr after treatment with compound, read-out: TR FRET IC50 24 hr.
The mark [6] stands for this setting: TR FRET IC50 1 hr (nM), 1 hr after treatment with compound.

Sequence of DCN1 protein (Q96GG9 whole entry): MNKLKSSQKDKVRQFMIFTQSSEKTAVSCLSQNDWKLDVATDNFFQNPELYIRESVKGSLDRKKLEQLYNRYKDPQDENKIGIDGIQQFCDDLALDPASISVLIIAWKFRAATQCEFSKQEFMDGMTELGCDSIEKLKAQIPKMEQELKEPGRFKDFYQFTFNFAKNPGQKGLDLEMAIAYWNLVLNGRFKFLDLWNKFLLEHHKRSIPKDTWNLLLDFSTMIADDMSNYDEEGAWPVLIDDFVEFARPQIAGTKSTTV
Sequence of DCN1 (DCUND1) protein PONY domain (Q96GG9 60-248): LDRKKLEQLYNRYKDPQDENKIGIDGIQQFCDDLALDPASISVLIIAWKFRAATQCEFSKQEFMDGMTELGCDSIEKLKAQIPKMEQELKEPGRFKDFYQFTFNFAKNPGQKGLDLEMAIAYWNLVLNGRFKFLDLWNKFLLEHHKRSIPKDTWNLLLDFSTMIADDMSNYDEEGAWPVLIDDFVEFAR

Turning to `CCN1C(=O)[C@@H](NC(=O)c2cccc(C(F)(F)F)c2)[C@@H](c2ccc(F)cc2)c2c(CNC(=O)[C@H](C)Cl)nn(-c3ccccc3)c21` (racemic) [Compound I-179], the IC50 (usually the concentration needed to halve the response being measured) in assay [1] (Homo sapiens, TF-1, 3 h) fell in the range of 100 to 1000 nM. In assay [2], the “% Adduct Formation” value is “+ (MS Emax % adduct formation greater than or equal to 0.0 and less than or equal to 30.0)”. Further, the EC50 – broadly, the concentration at which the effect is half-maximal – in assay [3] (Homo sapiens, 240 h) was above 1000 nM. Further, the “Nanostring Ymax obs (%)” value in assay [3] is “+ (Nanostring Ymax greater than or equal to 0.0 and less than or equal to 50.0)”.

Compound `CCN1C(=O)[C@@H](NC(=O)c2cccc(C(F)(F)F)c2)[C@@H](c2ccc(F)cc2)c2c(CN(C)C(=O)CCl)nn(-c3ccccc3)c21` (racemic) [Compound I-227] yielded an IC50 in assay [1] (Homo sapiens, TF-1, 3 h) of at most 100 nM. For the same compound, the “% Adduct Formation” value in assay [2] was “++ (MS Emax % adduct formation greater than 30.0 and less than or equal to 80.0)”. Further, the concentration for a half-maximal effect (EC50) in assay [3] (Homo sapiens, 240 h) lay within 100 to 1000 nM. For the same compound, the “Nanostring Ymax obs (%)” value in assay [3] is “++ (Nanostring Ymax greater than 50.0 and less than or equal to 100.0)”.

For the compound `C=C(CN1CCOCC1)C(=O)N(C)Cc1nn(-c2ccccc2)c2c1[C@H](c1ccc(F)cc1)[C@H](NC(=O)c1cccc(C(F)(F)F)c1)C(=O)N2CC` (racemic) [Compound I-185], in assay [1] (Homo sapiens, TF-1, 3 h), the IC50 lay within 100 to 1000 nM. The “% Adduct Formation” value in assay [2] is “+ (MS Emax % adduct formation greater than or equal to 0.0 and less than or equal to 30.0)”. Further, the “Nanostring Ymax obs (%)” value in assay [3] was “++ (Nanostring Ymax greater than 50.0 and less than or equal to 100.0)”.

With `CCN1C(=O)[C@@H](NC(=O)c2cccc(C(F)(F)F)c2)[C@@H](c2ccc(F)cc2)c2c(CNC(=O)/C(C#N)=C/C(C)C)nn(-c3ccccc3)c21` (racemic) [Compound I-241], the 50% inhibitory concentration (IC50) in assay [1] (Homo sapiens, TF-1, 3 h) was at most 100 nM. Besides, in assay [2], the “% Adduct Formation” value is “+++ (MS Emax % adduct formation greater than 80.0 and less than or equal to 100.0)”. Moreover, the “Nanostring Ymax obs (%)” value in assay [3] was “+ (Nanostring Ymax greater than or equal to 0.0 and less than or equal to 50.0)”.

The compound `CCN1C(=O)[C@@H](NC(=O)c2cccc(C(F)(F)F)c2)[C@@H](c2ccc(F)cc2)c2c([C@@H](C)NC(=O)CCl)nn(-c3ccccc3)c21` (mixture of isomers) [Compound I-190] yielded an IC50 in assay [1] (Homo sapiens, TF-1, 3 h) above 1000 nM. Besides, the “% Adduct Formation” value in assay [2] is “+ (MS Emax % adduct formation greater than or equal to 0.0 and less than or equal to 30.0)”. The EC50 in assay [3] (Homo sapiens, 240 h) was above 1000 nM. The “Nanostring Ymax obs (%)” value in assay [3] is “++ (Nanostring Ymax greater than 50.0 and less than or equal to 100.0)”.

In the case of `CCN1C(=O)[C@@H](NC(=O)c2cccc(C(F)(F)F)c2)[C@@H](c2ccc(F)cc2)c2c([C@@H](C)NC#N)nn(-c3ccccc3)c21` (mixture of isomers) [Compound I-167], the IC50 in assay [1] is at most 100 nM. The “% Adduct Formation” value in assay [2] is “+++ (MS Emax % adduct formation greater than 80.0 and less than or equal to 100.0)”. For the same compound, in assay [3], the EC50 is 100 to 1000 nM; the “Nanostring Ymax obs (%)” value is “++ (Nanostring Ymax greater than 50.0 and less than or equal to 100.0)”.

On to `C=C(CN(C)C)C(=O)N(C)Cc1nn(-c2ccccc2)c2c1[C@H](c1ccc(F)cc1)[C@H](NC(=O)c1cccc(C(F)(F)F)c1)C(=O)N2CC` (racemic) [Compound I-178], for which the IC50 in assay [1] (Homo sapiens, TF-1, 3 h) was at most 100 nM. Also, the “% Adduct Formation” value in assay [2] is “+++ (MS Emax % adduct formation greater than 80.0 and less than or equal to 100.0)”. In assay [3] (Homo sapiens, 240 h), this compound gave an EC50 of 100 to 1000 nM. In addition, the “Nanostring Ymax obs (%)” value in assay [3] was “++ (Nanostring Ymax greater than 50.0 and less than or equal to 100.0)”.

In turn, `CCN1C(=O)[C@@H](NC(=O)c2cccc(C(F)(F)F)c2)[C@@H](c2ccc(F)cc2)c2c(Cn3sccc3=O)nn(-c3ccccc3)c21` (racemic) [Compound I-192, rac-N-((4R,5R)-7-ethyl-4-(4-fluorophenyl)-6-oxo-3-((3-oxoisothiazol-2(3H)-yl)methyl)-1-phenyl-4,5,6,7-tetrahydro-1H-pyrazolo[3,4-b]pyridine-5-yl)-3-(trifluoromethyl)benzamide] returned an IC50 in assay [1] (Homo sapiens, TF-1, 3 h) of 100 to 1000 nM. The “% Adduct Formation” value in assay [2] is “++ (MS Emax % adduct formation greater than 30.0 and less than or equal to 80.0)”. Besides, the EC50 in assay [3] (Homo sapiens, 240 h) lay in the range of 100 to 1000 nM. Moreover, the “Nanostring Ymax obs (%)” value in assay [3] was “+ (Nanostring Ymax greater than or equal to 0.0 and less than or equal to 50.0)”.

`CCN1C(=O)[C@@H](NC(=O)c2cccc(C(F)(F)F)c2)[C@@H](c2ccc(F)cc2)c2c(NC(=O)C3(C#N)CCOCC3)nn(-c3ccccc3)c21` (racemic) [Compound I-66]: in assay [4] (setting [5]), the IC50 lay in the range of 200 to 1000 nM. The “% Adduct Formation” value in assay [2] is “+ (MS Emax % adduct formation greater than or equal to 0.0 and less than or equal to 30.0)”. Besides, the EC50 in assay [3] (Homo sapiens, 240 h) was above 1000 nM. Moreover, the “Nanostring Ymax obs (%)” value in assay [3] was “+ (Nanostring Ymax greater than or equal to 0.0 and less than or equal to 50.0)”.

As to `CCN1C(=O)[C@@H](NC(=O)c2cccc(C(F)(F)F)c2)[C@@H](c2ccc(F)cc2)c2c(CCN(C)C#N)nn(-c3ccccc3)c21` (racemic) [Compound I-151, rac-N-((4R,5R)-7-ethyl-4-(4-fluorophenyl)-3-(2-(N-methylcyanamido)ethyl)-6-oxo-1-phenyl-4,5,6,7-tetrahydro-1H-pyrazolo[3,4-b]pyridin-5-yl)-3-(trifluoromethyl)benzamide], the IC50 in assay [4] (setting [5]) is at most 200 nM; in assay [4] (setting [6]), 200 to 1000 nM. The “% Adduct Formation” value in assay [2] was “+++ (MS Emax % adduct formation greater than 80.0 and less than or equal to 100.0)”. Also, the EC50 in assay [3] (Homo sapiens, 240 h) is above 1000 nM. Moreover, the “Nanostring Ymax obs (%)” value in assay [3] is “++ (Nanostring Ymax greater than 50.0 and less than or equal to 100.0)”.

On to `C=C(CO)C(=O)NCc1nn(-c2ccccc2)c2c1[C@H](c1ccc(F)cc1)[C@H](NC(=O)c1cccc(C(F)(F)F)c1)C(=O)N2CC` (racemic) [Compound I-116, rac-N-((4R,5R)-7-ethyl-4-(4-fluorophenyl)-3-((2-(hydroxymethyl)acrylamido)methyl)-6-oxo-1-phenyl-4,5,6,7-tetrahydro-1H-pyrazolo[3,4-b]pyridin-5-yl)-3-(trifluoromethyl)benzamide], for which the IC50 in assay [4] (setting [5]) and in assay [4] (setting [6]) was 200 to 1000 nM each time. Further, the “% Adduct Formation” value in assay [2] is “+ (MS Emax % adduct formation greater than or equal to 0.0 and less than or equal to 30.0)”. Moreover, the EC50 in assay [3] (Homo sapiens, 240 h) is above 1000 nM. The “Nanostring Ymax obs (%)” value in assay [3] is “+ (Nanostring Ymax greater than or equal to 0.0 and less than or equal to 50.0)”.

For `CCN1C(=O)[C@@H](NC(=O)c2cccc(C(F)(F)F)c2)[C@H](c2ccc(F)cc2)c2c(CN(C)C(=O)/C=C/C(=O)OC)nn(-c3ccccc3)c21` (racemic) [Compound I-141, methyl (˜{E})-4-[[(4˜{S},5˜{S})-7-ethyl-4-(4-fluorophenyl)-6-oxo-1-phenyl-5-[[3-(trifluoromethyl)benzoyl]amino]-4,5-dihydropyrazolo[3,4-b]pyridine-3-yl]methyl-methyl-amino]-4-oxo-but-2-enoate], the half-maximal inhibitory concentration (IC50) in assay [4] (setting [6]) was in the range of 200 to 1000 nM. In addition, the “% Adduct Formation” value in assay [2] was “+ (MS Emax % adduct formation greater than or equal to 0.0 and less than or equal to 30.0)”. Besides, in assay [3] (Homo sapiens, 240 h), the EC50 is above 1000 nM. In assay [3], the “Nanostring Ymax obs (%)” value is “++ (Nanostring Ymax greater than 50.0 and less than or equal to 100.0)”.

Turning to `CCN1C(=O)[C@@H](NC(=O)c2cccc(C(F)(F)F)c2)[C@@H](c2ccc(F)cc2)c2c(CCNC#N)nn(-c3ccccc3)c21` (racemic) [Compound I-10, rac-N-((4R,5R)-3-(2-cyanamidoethyl)-7-ethyl-4-(4-fluorophenyl)-6-oxo-1-phenyl-4,5,6,7-tetrahydro-1H-pyrazolo[3,4-b]pyridin-5-yl)-3-(trifluoromethyl)benzamide], the 50% inhibitory concentration (IC50) in assay [4] (setting [5]) was at most 200 nM; in assay [4] (setting [6]) it was 200 to 1000 nM. Besides, the “% Adduct Formation” value in assay [2] was “++ (MS Emax % adduct formation greater than 30.0 and less than or equal to 80.0)”. In assay [3] (Homo sapiens, 240 h), this compound displayed an EC50 of 100 to 1000 nM. Moreover, the “Nanostring Ymax obs (%)” value in assay [3] was “++ (Nanostring Ymax greater than 50.0 and less than or equal to 100.0)”.

Consider `CCN1C(=O)[C@@H](NC(=O)c2cccc(C(F)(F)F)c2)[C@@H](c2ccc(F)cc2)c2c(C3(NC#N)CC3)nn(-c3ccccc3)c21` (racemic) [Compound I-87], for which the IC50 in assay [4] (setting [5]) is at most 200 nM; in assay [4] (setting [6]), 200 to 1000 nM. Further, the “% Adduct Formation” value in assay [2] is “+++ (MS Emax % adduct formation greater than 80.0 and less than or equal to 100.0)”. The EC50 in assay [3] (Homo sapiens, 240 h) was in the range of 100 to 1000 nM. The “Nanostring Ymax obs (%)” value in assay [3] was “++ (Nanostring Ymax greater than 50.0 and less than or equal to 100.0)”.

Take `CCN1C(=O)[C@@H](NC(=O)c2cccc(C(F)(F)F)c2)[C@@H](c2ccc(F)cc2)c2c(C/C=C/C(=O)NC)nn(-c3ccccc3)c21` (racemic) [Compound I-38]: the IC50 in assay [4] (setting [5]) and in assay [4] (setting [6]) was 1000 to 3000 nM throughout. In addition, the “% Adduct Formation” value in assay [2] is “+ (MS Emax % adduct formation greater than or equal to 0.0 and less than or equal to 30.0)”. The EC50 in assay [3] (Homo sapiens, 240 h) is above 1000 nM. Besides, the “Nanostring Ymax obs (%)” value in assay [3] is “+ (Nanostring Ymax greater than or equal to 0.0 and less than or equal to 50.0)”.
